From publication PMC8662641, “Site-Specific Labeling of Endogenous Proteins Using CoLDR Chemistry” (Journal of the American Chemical Society, 2021)

System: Mino cells
Assay: Pull-down proteomics in Mino cells
Format: cell-based, human
Experimental: The cells were lysed and “clicked” with biotin-azide, and the samples were incubated at room temperature for 1 h. The samples were then precipitated with methanol–chloroform (1 mL of methanol, 250 μL of chloroform, 750 μL of water), washed with 1 mL of methanol, and air-dried. The samples were solubilized, bound to streptavidin agarose beads in PBS for 3 h at 25 °C. The beads were washed, centrifuged, resuspended in Tris 50 mM pH 8, and transferred to a clean Eppendorf tube. After this, the bound proteins were eluted by boiling with 5% SDS then reduced with DTT, alkylated with iodoacetamide, and digested with trypsin. The samples were run on LC/MS/MS. The detailed procedure is available in the Supplementary Methods Section. […]
Pull-down proteomics experiments
1b or DMSO. The cells were spun down, washed with cold PBS and frozen. Then, each sample was lysed in 200 ul of RIPA for 15 minutes on ice and centrifuged at 20000 g at 4 °C. The protein in the supernatant was quantified using BCA. For each sample, […] of 1.65 mg/ml was prepared.
At this point, 5 ul of 5 mM biotin azide and 9 ul of 100 mM CuSO4:THPTA complex were added.
The click reaction was initiated by the addition of 7.5 ul of 150 mM sodium ascorbate, and the samples are incubated at room temperature for 1 hour. The samples were then precipitated with methanol: chloroform (1 ml methanol, 250 l chloroform, 750 l water), washed with 1 ml of methanol, and air dried. The dry pellet was resuspended in 1.2% SDS in PBS (250 l), sonicated as described before, and heated to 90 °C for 5 minutes. The samples were then diluted to 1.5 ml with PBS, and 50 ul of streptavidin agarose beads, prewashed with 0.2% SDS in PBS, were added, followed by 3 hour incubation at room temperature. Following the incubation, the beads were centrifuged 2 minutes 2000 g, and washed 4 times, with the following buffers (4 ml in each wash):
2% SDS; 0.1% sodium deoxycholate, 1% Triton X-100, 0.5 M NaCl, 1 mM EDTA, 50 mM HEPES pH = 7.5; 0.25 M NaCl, 0.5% IGEPAL, 0.5% sodium deoxycholate, 1 mM EDTA, 10 mM Tris pH = 8.1; 50 mM Tris pH = 7.4, 50 mM NaCl. The beads were then resuspended in Tris 50 mM pH = 8 and transferred to a clean Eppendorf tube.
At this point, the buffer was removed to leave a volume of 100 ul, and 100 ul of Tris 50 mM pH 8 + 10% SDS was added, and the samples were heated to 96 °C for 5 minutes. The samples were then centrifuged and the denatured, eluted proteins were transferred to new tubes. Then, 7.5 ul of 0.1 M DTT was added, and samples were incubated at 65 °C for 45 minutes. After the samples had cooled, 7.5 ul of iodoacetamide (0.2 M) were added, and the samples were incubated in the dark for 40 minutes at room temperature. At this point 1/10 volume of 12% phosphoric acid was added, and the samples were diluted 6-fold with 90% methanol + 50 mM ammonium bicarbonate. The samples were then loaded on s-trap micro columns (Protify) and the columns […]
were washed 3 times with 150 ul of 90% methanol + 50 mM ammonium bicarbonate. Then, 20 ul of 0.05 g/l of trypsin in 50 mM ammonium bicarbonate were added to the columns, and the samples were incubated at 47 °C for 90 minutes. Then 40 ul of 50 mM ammonium bicarbonate was added, followed by centrifugation and addition of 1 ul of 0.5 g/l trypsin to the eluate, which was incubated at 37C overnight. The column itself was then eluted using 40 ul of 0.2% formic acid and 40 ul 0.2% formic acid in 50% acetonitrile into a separate tube, which was kept at 4 °C. The two eluates were then combined and evaporated before running on LC/MS/MS.
Running samples on LC/MS/MS:
ULC/MS grade solvents were used for all chromatographic steps. Each sample was loaded using split-less nano-Ultra Performance Liquid Chromatography (10 kpsi nanoAcquity; Waters, Milford, MA, USA). The mobile phase was: A) H2O + 0.1% formic acid and B) acetonitrile + 0.1% formic acid. Desalting of the samples was performed online using a reversed-phase Symmetry C18 […]

C#CCCNC(=O)C(=C)CN1CCC[C@@H](n2nc(-c3ccc(Oc4ccccc4)cc3)c3c(N)ncnc32)C1 [1b]
Log2(fold enrichment) (ACACA_HUMAN group, 1b relative to pretreatment by ibrutinib): 0.4315
Log2(fold enrichment) (ACACA_HUMAN group, 1b relative to treatment with DMSO): -0.2749
Log2(fold enrichment) (ACTG_HUMAN group, 1b relative to pretreatment by ibrutinib): 0.2725
Log2(fold enrichment) (ACTG_HUMAN group, 1b relative to treatment with DMSO): 0.2915
Log2(fold enrichment) (ALDOA_HUMAN, 1b relative to pretreatment by ibrutinib): 0.4926
Log2(fold enrichment) (ALDOA_HUMAN, 1b relative to treatment with DMSO): 0.06327
Log2(fold enrichment) (ANXA2_HUMAN group, 1b relative to pretreatment by ibrutinib): -0.9011
Log2(fold enrichment) (ANXA2_HUMAN group, 1b relative to treatment with DMSO): 0.8548
Log2(fold enrichment) (B3GT4_HUMAN, 1b relative to pretreatment by ibrutinib): 0.1405
Log2(fold enrichment) (B3GT4_HUMAN, 1b relative to treatment with DMSO): 2.2518
Log2(fold enrichment) (CAD15_HUMAN, 1b relative to pretreatment by ibrutinib): -2.753
Log2(fold enrichment) (CAD15_HUMAN, 1b relative to treatment with DMSO): -0.7397
Log2(fold enrichment) (CRERF_HUMAN, 1b relative to pretreatment by ibrutinib): -0.1083
Log2(fold enrichment) (CRERF_HUMAN, 1b relative to treatment with DMSO): -0.06839
Log2(fold enrichment) (CX062_HUMAN, 1b relative to pretreatment by ibrutinib): 3.426
Log2(fold enrichment) (CX062_HUMAN, 1b relative to treatment with DMSO): 2.336
Log2(fold enrichment) (CYB5B_HUMAN, 1b relative to pretreatment by ibrutinib): 4.3203
Log2(fold enrichment) (CYB5B_HUMAN, 1b relative to treatment with DMSO): 3.916
Log2(fold enrichment) (CYFP1_HUMAN, 1b relative to pretreatment by ibrutinib): 5.178
Log2(fold enrichment) (CYFP1_HUMAN, 1b relative to treatment with DMSO): 4.841
Log2(fold enrichment) (DCD_HUMAN, 1b relative to pretreatment by ibrutinib): 0.833
Log2(fold enrichment) (DCD_HUMAN, 1b relative to treatment with DMSO): 3.261
Log2(fold enrichment) (DESP_HUMAN, 1b relative to pretreatment by ibrutinib): -0.03598
Log2(fold enrichment) (DESP_HUMAN, 1b relative to treatment with DMSO): 1.065
Log2(fold enrichment) (DSC1_HUMAN, 1b relative to pretreatment by ibrutinib): -0.2037
Log2(fold enrichment) (DSC1_HUMAN, 1b relative to treatment with DMSO): 0.5233
Log2(fold enrichment) (DSG1_HUMAN, 1b relative to pretreatment by ibrutinib): -0.7862
Log2(fold enrichment) (DSG1_HUMAN, 1b relative to treatment with DMSO): 1.658
Log2(fold enrichment) (EF1A3_HUMAN group, 1b relative to pretreatment by ibrutinib): 0.1605
Log2(fold enrichment) (EF1A3_HUMAN group, 1b relative to treatment with DMSO): 0.3209
Log2(fold enrichment) (ELAF_HUMAN, 1b relative to pretreatment by ibrutinib): -0.07576
Log2(fold enrichment) (ELAF_HUMAN, 1b relative to treatment with DMSO): 3.288
Log2(fold enrichment) (ENOA_HUMAN, 1b relative to pretreatment by ibrutinib): 0.1924
Log2(fold enrichment) (ENOA_HUMAN, 1b relative to treatment with DMSO): 0.2037
Log2(fold enrichment) (EP400_HUMAN, 1b relative to pretreatment by ibrutinib): 1.834
Log2(fold enrichment) (EP400_HUMAN, 1b relative to treatment with DMSO): -0.06967
Log2(fold enrichment) (FABP5_HUMAN, 1b relative to pretreatment by ibrutinib): -0.02939
Log2(fold enrichment) (FABP5_HUMAN, 1b relative to treatment with DMSO): 1.253
Log2(fold enrichment) (G3P_HUMAN, 1b relative to pretreatment by ibrutinib): 0.2104
Log2(fold enrichment) (G3P_HUMAN, 1b relative to treatment with DMSO): 0.2112
Log2(fold enrichment) (GRAH_HUMAN, 1b relative to pretreatment by ibrutinib): -0.3838
Log2(fold enrichment) (GRAH_HUMAN, 1b relative to treatment with DMSO): 1.151
Log2(fold enrichment) (GSTP1_HUMAN, 1b relative to pretreatment by ibrutinib): 0.8097
Log2(fold enrichment) (GSTP1_HUMAN, 1b relative to treatment with DMSO): 1.004
Log2(fold enrichment) (HS90B_HUMAN group, 1b relative to pretreatment by ibrutinib): 0.4589
Log2(fold enrichment) (HS90B_HUMAN group, 1b relative to treatment with DMSO): 0.7364
Log2(fold enrichment) (HSP7C_HUMAN, 1b relative to pretreatment by ibrutinib): 0.6921
Log2(fold enrichment) (HSP7C_HUMAN, 1b relative to treatment with DMSO): 0.6391
Log2(fold enrichment) (K2C6B_HUMAN, 1b relative to pretreatment by ibrutinib): -0.8867
Log2(fold enrichment) (K2C6B_HUMAN, 1b relative to treatment with DMSO): 0.6152
Log2(fold enrichment) (KPYM_HUMAN, 1b relative to pretreatment by ibrutinib): 0.1731
Log2(fold enrichment) (KPYM_HUMAN, 1b relative to treatment with DMSO): 1.135
Log2(fold enrichment) (LDHA_HUMAN, 1b relative to pretreatment by ibrutinib): 0.2369
Log2(fold enrichment) (LDHA_HUMAN, 1b relative to treatment with DMSO): -0.2458
Log2(fold enrichment) (LEG9C_HUMAN group, 1b relative to pretreatment by ibrutinib): 1.455
Log2(fold enrichment) (LEG9C_HUMAN group, 1b relative to treatment with DMSO): -0.9819
Log2(fold enrichment) (MCCA_HUMAN, 1b relative to pretreatment by ibrutinib): 0.4599
Log2(fold enrichment) (MCCA_HUMAN, 1b relative to treatment with DMSO): -0.3745
Log2(fold enrichment) (MMRN2_HUMAN, 1b relative to pretreatment by ibrutinib): -0.0371
Log2(fold enrichment) (MMRN2_HUMAN, 1b relative to treatment with DMSO): 0.08276
off-targets found in pull-down proteomics (Mino cells, 100 nM 1b): BLK, MCAT, and ADK
Log2(fold enrichment) (NEUM_HUMAN, 1b relative to pretreatment by ibrutinib): 2
Log2(fold enrichment) (NEUM_HUMAN, 1b relative to treatment with DMSO): 0.3281
Log2(fold enrichment) (NPM_HUMAN, 1b relative to pretreatment by ibrutinib): 1.109
Log2(fold enrichment) (NPM_HUMAN, 1b relative to treatment with DMSO): 0.4515
Log2(fold enrichment) (PIP_HUMAN, 1b relative to pretreatment by ibrutinib): 0.6558
Log2(fold enrichment) (PIP_HUMAN, 1b relative to treatment with DMSO): -0.01924
Log2(fold enrichment) (PLAK_HUMAN, 1b relative to pretreatment by ibrutinib): 0.152
Log2(fold enrichment) (PLAK_HUMAN, 1b relative to treatment with DMSO): 1.616
Log2(fold enrichment) (PRDX2_HUMAN group, 1b relative to pretreatment by ibrutinib): -0.09254
Log2(fold enrichment) (PRDX2_HUMAN group, 1b relative to treatment with DMSO): -0.2676
Log2(fold enrichment) (REL_HUMAN, 1b relative to pretreatment by ibrutinib): 1.348
Log2(fold enrichment) (REL_HUMAN, 1b relative to treatment with DMSO): -0.2147
Log2(fold enrichment) (RL13_HUMAN, 1b relative to pretreatment by ibrutinib): 0.7491
Log2(fold enrichment) (RL13_HUMAN, 1b relative to treatment with DMSO): 0.2396
Log2(fold enrichment) (RL15_HUMAN, 1b relative to pretreatment by ibrutinib): 0.2388
Log2(fold enrichment) (RL15_HUMAN, 1b relative to treatment with DMSO): 0.9031
Log2(fold enrichment) (RL18_HUMAN, 1b relative to pretreatment by ibrutinib): 0.6086
Log2(fold enrichment) (RL18_HUMAN, 1b relative to treatment with DMSO): -0.373
Log2(fold enrichment) (RL40_HUMAN group, 1b relative to pretreatment by ibrutinib): -1.022
Log2(fold enrichment) (RL40_HUMAN group, 1b relative to treatment with DMSO): 0.218
Log2(fold enrichment) (S10A8_HUMAN, 1b relative to pretreatment by ibrutinib): 0.2414
Log2(fold enrichment) (S10A8_HUMAN, 1b relative to treatment with DMSO): 0.2312
Log2(fold enrichment) (S10A9_HUMAN, 1b relative to pretreatment by ibrutinib): 0.07875
Log2(fold enrichment) (S10A9_HUMAN, 1b relative to treatment with DMSO): 2.006
Log2(fold enrichment) (SYFM_HUMAN, 1b relative to pretreatment by ibrutinib): 0.9276
Log2(fold enrichment) (SYFM_HUMAN, 1b relative to treatment with DMSO): -1.069
Log2(fold enrichment) (TBA1B_HUMAN group, 1b relative to pretreatment by ibrutinib): 0.8267
Log2(fold enrichment) (TBA1B_HUMAN group, 1b relative to treatment with DMSO): 1.164
Log2(fold enrichment) (TBB5_HUMAN group, 1b relative to pretreatment by ibrutinib): 1.023
Log2(fold enrichment) (TBB5_HUMAN group, 1b relative to treatment with DMSO): 0.6602
Log2(fold enrichment) (TGM3_HUMAN, 1b relative to pretreatment by ibrutinib): -0.2702
Log2(fold enrichment) (TGM3_HUMAN, 1b relative to treatment with DMSO): 0.4648
Log2(fold enrichment) (THIO_HUMAN, 1b relative to pretreatment by ibrutinib): 0.6478
Log2(fold enrichment) (THIO_HUMAN, 1b relative to treatment with DMSO): 0.5583
Log2(fold enrichment) (TPIS_HUMAN, 1b relative to pretreatment by ibrutinib): 1.866
Log2(fold enrichment) (TPIS_HUMAN, 1b relative to treatment with DMSO): 2.762
Log2(fold enrichment) (VDAC2_HUMAN, 1b relative to pretreatment by ibrutinib): 0.298
Log2(fold enrichment) (VDAC2_HUMAN, 1b relative to treatment with DMSO): 2.794
Log2(fold enrichment) (ZNT4_HUMAN, 1b relative to pretreatment by ibrutinib): 0.6391
Log2(fold enrichment) (ZNT4_HUMAN, 1b relative to treatment with DMSO): 0.7876
